Several values for one entry are separate records, joined by “and”; a condition that tells them apart may be missing. Equal entries are not always repeated. Where two headings read alike, the source gives them in different places.
Experiments:
[1] = system: cap-proximal AUG GFP reporter in HEK293T cells; assay type: cell-based; settings: GFP WB densitometry; 20 µM overnight; dmso 0.965946;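 further: ratio of upstream to downstream AUG initiation products on GFP Western blot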
eIF1A without CTT = target: T1, eIF1A without CTT (Homo sapiens, UniProt P47813); assay type: binding; settings: for fluorescence ratio, eIF1A Δ CTT: background-corrected, relative to DMSO or lowest 1Ai concentration, replicate columns
T1 construct: His-bdSUMO (cleaved yes); made in house; host or cells: E. coli (BL-21)

[2] = system: uORF-bearing 5'UTR firefly reporters in HEK293T cells; experiment: uORF reinitiation / leaky scanning firefly reporters; settings: for ff/rl, 46 leaky reporter / ff/rl, 46 reporter / ff/rl, normal reporter: single replicates, not normalized to DMSO
Description: (M) The reference and uORF-bearing reporters were transfected to HEK293T cells together with RL, which served to normalize translation efficiency. The reporter activities are represented as firefly vs RL; n ≥3 independent biological replicates, error bars represent SEM. *P < 0.05, **P < 0.01, Student t test. (N) Firefly Reporters (J) were transfected to HEK293T cells together with normalizing RL. […] Results are represented as firefly vs. RL normalized to DMSO in each biological replicate; n = 4, error bars represent SEM. *P < 0.05, **P < 0.01, Student t test.
In the first and second, we inserted an out-of-frame uAUG 46 or 95 nucleotides before the main ORF, respectively, followed by a downstream stop codon generating an uORF of 10 amino acids. In these constructs, the translation from the main ORF could be either by reinitiation or leaky scanning. In the third construct, this out of frame uAUG lacks a stop codon, causing initiation from the main ORF to exclusively occur via leaky scanning (Fig. 4L). These reporters were transfected into HEK293T cells together with RL luciferase reporter for normalizing transfection efficiency. […] We next examined these reporters in the presence of 1Ais.

RPS10 = target: T2, RPS10 (Homo sapiens, UniProt P46783); assay type: binding
T2 construct: made in house; host or cells: E. coli BL-21

eIF1A without NTT = target: T3, eIF1A without NTT (Homo sapiens, UniProt P47813); experiment: Fluorescence binding assay with NTT-truncated eIF1A; settings: for fluorescence ratio, eIF1A Δ NTT: background-corrected, relative to DMSO or lowest 1Ai concentration, replicate columns
T3 construct: His-bdSUMO (cleaved yes); made in house; host or cells: E. coli (BL-21)

[3] = system: regulatory CUG of SARS-CoV-2 ORF7a 5'UTR in HEK293T cells; assay type: cell-based; settings: for average (inverted): normalized to DMSO = 1.000, mean of 3 reps; for CUG/AUG ratio (Renilla/firefly): overnight; for FF CTG signal, mean of duplicates / FF vs Rluc / FF vs Rluc, inverted / Rluc ATG signal, mean of duplicates / normalized to DMSO: reps 1-3; for normalized to DMSO: DMSO = 1
[4] = read-out: IC50 (line under RPS10 binding data)
[5] = summary table, fluorescence binding assay, read-out: IC50 concentration (µM), RPS10

T1 sequence (P47813 1-114 limits assumed): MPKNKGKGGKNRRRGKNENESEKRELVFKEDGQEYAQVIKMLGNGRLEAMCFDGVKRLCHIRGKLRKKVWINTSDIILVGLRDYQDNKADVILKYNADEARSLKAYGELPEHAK
T3 sequence (P47813 31-144 limits assumed): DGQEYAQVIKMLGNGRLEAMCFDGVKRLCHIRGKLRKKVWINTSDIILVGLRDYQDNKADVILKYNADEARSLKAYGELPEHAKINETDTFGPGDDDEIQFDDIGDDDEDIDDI

## O=C(COc1ccccc1[N+](=O)[O-])NCc1ccc(-c2ccc(Br)cc2)o1 [1Ai-4700]
[1]
  US/DS ratio, average: 0.7947
eIF1A without CTT; 1Ai conc. 0.25 uM
  fluorescence ratio, eIF1A Δ CTT: 1.002 and 1.029
eIF1A without CTT; 1Ai conc. 0.5 uM
  fluorescence ratio, eIF1A Δ CTT: 0.8837 and 0.9156
eIF1A without CTT; 1Ai conc. 1 uM
  fluorescence ratio, eIF1A Δ CTT: 0.8554 and 0.8332
eIF1A without CTT; 1Ai conc. 2 uM
  fluorescence ratio, eIF1A Δ CTT: 0.9021 and 0.8902
eIF1A without CTT; 1Ai conc. 4 uM
  fluorescence ratio, eIF1A Δ CTT: 0.8119 and 0.7934
eIF1A without CTT; 1Ai conc. 8 uM
  fluorescence ratio, eIF1A Δ CTT: 0.6359 and 0.584
eIF1A without CTT; 1Ai conc. 16 uM
  fluorescence ratio, eIF1A Δ CTT: 0.7372 and 0.671
eIF1A without CTT; 1Ai conc. 32 uM
  fluorescence ratio, eIF1A Δ CTT: 0.5663 and 0.5472
eIF1A without CTT; 1Ai conc. 64 uM
  fluorescence ratio, eIF1A Δ CTT: 0.381 and 0.3897
eIF1A without CTT; 1Ai conc. 256 uM
  fluorescence ratio, eIF1A Δ CTT: 0.2785 and 0.26
eIF1A without CTT; eIF1A Δ CTT, from the titration data, read-out: IC50 (eIF1A Δ CTT titration block)
  IC50: 30.2 µM
eIF1A without CTT; summary table, fluorescence binding assay, read-out: IC50 concentration (µM), CTT truncation
  IC50: 30.2 µM
[2]; 20uM (1Ai-5175 at 5uM), overnight
  effect on uORF / leaky scanning reporters: inhibit the short-distance reinitiation
[2]; 46 leaky reporter, average of biological repeats
  normalized to DMSO, 46 leaky, average: 0.994
[2]; 46 leaky reporter, biological repeats 1-4
  normalized to DMSO, 46 leaky, biological repeats: 0.989 and 1.082 and 1.159 and 0.746
[2]; 46 leaky reporter, single replicates 1-8 (two dates)
  normalized to DMSO, 46 leaky: 0.973 and 1.005 and 1.055 and 1.109 and 1.618 and 0.700 and 0.255 and 1.237
[2]; -46 reporter, average of biological repeats
  normalized to DMSO, -46, average: 0.679
[2]; -46 reporter, biological repeats 1-4
  normalized to DMSO, -46, biological repeats: 0.691 and 0.744 and 0.743 and 0.536
[2]; -46 reporter, single replicates 1-8 (two dates)
  normalized to DMSO, -46: 0.671 and 0.712 and 0.669 and 0.819 and 1.007 and 0.479 and 0.251 and 0.821
[2]; experiment 12.3.24
  ff/rl, 46 leaky reporter: 3.84E-02 and 3.96E-02 and 4.16E-02 and 4.37E-02
  ff/rl, 46 reporter: 1.06E-01 (2×) and 1.12E-01 and 1.29E-01
  ff/rl, normal reporter: 2.90E-01 and 2.11E-01 and 2.89E-01 and 2.67E-01
[2]; experiment 13.03.24
  ff/rl, 46 leaky reporter: 1.47E-02 and 6.33E-03 and 2.31E-03 and 1.12E-02
  ff/rl, 46 reporter: 2.46E-02 and 1.17E-02 and 6.14E-03 and 2.01E-02
  ff/rl, normal reporter: 3.97E-02 and 5.12E-02 and 7.78E-02 and 1.08E-01
[2]; minus46 reporter, 95nt from uORF to main ORF experiment, Figure 4N source data, replicate experiments, DMSO = 1
  reporter activity norm to DMSO, minus46: 0.3368 and 0.3707
[2]; minus 95 (nt) reporter, 95nt from uORF to main ORF experiment, Figure 4N source data, replicate experiments, DMSO = 1
  reporter activity norm to DMSO, minus 95: 1.361 and 1.106
[2]; ref reporter, 95nt from uORF to main ORF experiment, Figure 4N source data, replicate experiments, DMSO = 1
  reporter activity norm to DMSO, ref: 0.8256 and 0.6094
[2]; refference reporter, average of biological repeats
  normalized to DMSO, refference, average: 0.908
[2]; refference reporter, single replicates 1-8 (two dates)
  normalized to DMSO, refference: 1.031 and 0.751 and 1.028 and 0.950 and 0.503 and 0.648 and 0.985 and 1.371
[2]; reporter 46, experiment 12.3.24
  normalized to DMSO, single replicates: 6.71E-01 and 7.12E-01 and 6.69E-01 and 8.19E-01
[2]; reporter 46, experiment 12.3.24, DMSO = 1
  normalize to DMSO, average: 0.7177
[2]; reporter 46, experiment 13.3.24
  normalized to DMSO, single replicates: 1.01E+00 and 4.79E-01 and 2.51E-01 and 8.21E-01
[2]; reporter 46, experiment 13.3.24, DMSO = 1
  normalize to DMSO, average: 0.6395
[2]; reporter 46 leaky, experiment 12.3.24, DMSO = 1
  normalize to DMSO, average: 1.036
[2]; reporter 46 leaky, experiment 13.3.24
  normalized to DMSO, single replicates: 1.62E+00 and 7.00E-01 and 2.55E-01 and 1.24E+00
[2]; reporter 46 leaky, experiment 13.3.24, DMSO = 1
  normalize to DMSO, average: 0.9525
[2]; reporter normal (refference), experiment 12.3.24
  normalized to DMSO, single replicates: 1.03E+00 (2×) and 7.51E-01 and 9.50E-01
[2]; reporter normal (refference), experiment 13.3.24
  normalized to DMSO, single replicates: 5.03E-01 and 6.48E-01 and 9.85E-01 and 1.37E+00
[2]; reporter refference, experiment 12.3.24, DMSO = 1
  normalize to DMSO, average: 0.9399
[2]; reporter refference, experiment 13.3.24, DMSO = 1
  normalize to DMSO, average: 0.8765
[2]; uORF to main ORF distance extended by 49 nt
  inhibitory effect with extended (long) reinitiation distance: lost
RPS10; 1Ai conc. 0.25 uM
  RPS10 fluorescence ratio to control: 1
RPS10; 1Ai conc. 0.5 uM
  RPS10 fluorescence ratio to control: 0.9948
RPS10; 1Ai conc. 1 uM
  RPS10 fluorescence ratio to control: 1.113
RPS10; 1Ai conc. 2 uM
  RPS10 fluorescence ratio to control: 1.071
RPS10; 1Ai conc. 4 uM
  RPS10 fluorescence ratio to control: 0.9943
RPS10; 1Ai conc. 8 uM
  RPS10 fluorescence ratio to control: 0.904
RPS10; 1Ai conc. 16 uM
  RPS10 fluorescence ratio to control: 0.762
RPS10; 1Ai conc. 32 uM
  RPS10 fluorescence ratio to control: 0.6123
RPS10; 1Ai conc. 64 uM
  RPS10 fluorescence ratio to control: 0.5202
RPS10; 1Ai conc. 256 uM
  RPS10 fluorescence ratio to control: 0.4416
RPS10; [4]
  IC50: 4.9 µM
RPS10; read-out: RPS10 IC50
  IC50: 4.9 µM
RPS10; [5]
  IC50: 4.9 µM
eIF1A without NTT
  binding to NTT-truncated eIF1A: significantly decreased
eIF1A without NTT; 1Ai conc. 0.25 uM
  fluorescence ratio, eIF1A Δ NTT: 0.8472 and 0.7714
eIF1A without NTT; 1Ai conc. 0.5 uM
  fluorescence ratio, eIF1A Δ NTT: 0.8794 and 0.8467
eIF1A without NTT; 1Ai conc. 1 uM
  fluorescence ratio, eIF1A Δ NTT: 0.866 and 0.8543
eIF1A without NTT; 1Ai conc. 2 uM
  fluorescence ratio, eIF1A Δ NTT: 0.8713 and 0.8518
eIF1A without NTT; 1Ai conc. 4 uM
  fluorescence ratio, eIF1A Δ NTT: 0.8204 and 0.8417
eIF1A without NTT; 1Ai conc. 8 uM
  fluorescence ratio, eIF1A Δ NTT: 2.437 and 0.8015
eIF1A without NTT; 1Ai conc. 16 uM
  fluorescence ratio, eIF1A Δ NTT: 0.7775 and 0.7663
eIF1A without NTT; 1Ai conc. 32 uM
  fluorescence ratio, eIF1A Δ NTT: 0.7078 and 0.6935
eIF1A without NTT; 1Ai conc. 64 uM
  fluorescence ratio, eIF1A Δ NTT: 0.6729 and 0.5628
eIF1A without NTT; 1Ai conc. 256 uM
  fluorescence ratio, eIF1A Δ NTT: 0.6059 and 0.6683
eIF1A without NTT; eIF1A Δ NTT, from the titration data, read-out: IC50 (eIF1A Δ NTT titration block)
  IC50: 30.2 µM
eIF1A without NTT; summary table, fluorescence binding assay, read-out: IC50 concentration (µM), NTT truncation
  IC50: 45.7 µM

## O=c1cc(CN2CCOCC2)occ1OCCCCCSc1ccnc2cc(C(F)(F)F)ccc12 [1Ai-5730]
[1]
  US/DS ratio, average: 0.4467
[3]
  average (inverted): 0.744
  CUG/AUG ratio (Renilla/firefly): decreased the CUG/AUG ratio to variable degrees
  FF CTG signal, mean of duplicates: 5472.4 and 6803.94 and 6446.76
  FF vs Rluc: 54.969 and 55.654 and 55.147
  FF vs Rluc, inverted: 0.018
  Rluc ATG signal, mean of duplicates: 2604320 and 3030300 and 3158315
  normalized to DMSO: 0.748 and 0.739 and 0.745
RPS10; 1Ai conc. 0.25 uM
  RPS10 fluorescence ratio to control: 1
RPS10; 1Ai conc. 0.5 uM
  RPS10 fluorescence ratio to control: 0.9752
RPS10; 1Ai conc. 1 uM
  RPS10 fluorescence ratio to control: 0.9984
RPS10; 1Ai conc. 2 uM
  RPS10 fluorescence ratio to control: 0.9868
RPS10; 1Ai conc. 4 uM
  RPS10 fluorescence ratio to control: 1.11
RPS10; 1Ai conc. 8 uM
  RPS10 fluorescence ratio to control: 1.2215
RPS10; 1Ai conc. 16 uM
  RPS10 fluorescence ratio to control: 1.217
RPS10; 1Ai conc. 32 uM
  RPS10 fluorescence ratio to control: 1.212
RPS10; 1Ai conc. 256 uM
  RPS10 fluorescence ratio to control: 1.367
RPS10; [4]
  IC50: 22.1 µM
RPS10; read-out: RPS10 IC50
  IC50: 22.1 µM
RPS10; [5]
  IC50: 22.1 µM

## Cc1ccc(C)n1-c1cc([N+](=O)[O-])ccc1N1CCN(C(=O)c2ccccc2)CC1 [1Ai-9008]
[1]
  US/DS ratio, average: 0.5847
[3]
  average (inverted): 0.875
  CUG/AUG ratio (Renilla/firefly): decreased the CUG/AUG ratio to variable degrees
  FF CTG signal, mean of duplicates: 19795.8 and 14760.8 and 12081.3
  FF vs Rluc: 47.590 and 44.537 and 48.991
  FF vs Rluc, inverted: 0.021 and 0.022 and 0.020
  Rluc ATG signal, mean of duplicates: 10881500 and 8214985 and 6662440
  normalized to DMSO: 0.864 and 0.923 and 0.839
RPS10; 1Ai conc. 0.25 uM
  RPS10 fluorescence ratio to control: 1
RPS10; 1Ai conc. 0.5 uM
  RPS10 fluorescence ratio to control: 0.9583
RPS10; 1Ai conc. 1 uM
  RPS10 fluorescence ratio to control: 0.9477
RPS10; 1Ai conc. 2 uM
  RPS10 fluorescence ratio to control: 0.9687
RPS10; 1Ai conc. 4 uM
  RPS10 fluorescence ratio to control: 0.9804
RPS10; 1Ai conc. 8 uM
  RPS10 fluorescence ratio to control: 0.9597
RPS10; 1Ai conc. 16 uM
  RPS10 fluorescence ratio to control: 0.9394
RPS10; 1Ai conc. 32 uM
  RPS10 fluorescence ratio to control: 1.009
RPS10; 1Ai conc. 256 uM
  RPS10 fluorescence ratio to control: 1.212
RPS10; [4]
  IC50: 9.9 µM
RPS10; read-out: RPS10 IC50
  IC50: 9.9 µM
RPS10; [5]
  IC50: 9.9 µM
